Data as given in ChEMBL document CHEMBL1135324, “Quaternary salts of E2020 analogues as acetylcholinesterase inhibitors for the reversal of neuromuscular block” (Bioorg Med Chem Lett, 2002).

Assays:
[1] = tested on: Felis catus; assay: Mean arterial pressure change was detected in anaesthetised cats on administration of the compound; type: functional, Artery; further: test concentration or dose not given here
[2] = tested on: Felis catus; assay: Change in response to vagal stimulation was detected in anaesthetised cats on administration of the compound; type: functional; further: test concentration or dose not given here
[3] = tested on: Felis catus; assay: Effective dose required for the reversal of vecuronium-induced neuromuscular block in-vivo in Chloaralose anaesthetised cats; type: functional
[4] = tested on: Felis catus; assay: Maximum reversal of vecuronium-induced neuromuscular block in-vivo in anaesthetised cats; type: functional
[5] = tested on: Felis catus; assay: Change in heart rate was detected in anaesthetised cats on administration of the compound; type: functional; further: test concentration or dose not given here
[6] = target: T1, Acetylcholinesterase (Homo sapiens, UniProt P22303)
[7] = target: T1, Acetylcholinesterase; remark: listed apart in the source
Description: In vitro reversal of vecuronium-induced neuromuscular block in guinea pig hemi-diaphragm.

[8] = Tested for water solubility of the compound; type: ADME; settings: read-out: S
[9] = target: T1, Acetylcholinesterase; assay: In vitro inhibition of human recombinant AChE.
[10] = tested on: Felis catus; assay: Maximum reversal of vecuronium-induced neuromuscular block in-vivo in anaesthetised cats at 1.28 umol/kg; type: functional

T1 sequence (P22303 whole entry): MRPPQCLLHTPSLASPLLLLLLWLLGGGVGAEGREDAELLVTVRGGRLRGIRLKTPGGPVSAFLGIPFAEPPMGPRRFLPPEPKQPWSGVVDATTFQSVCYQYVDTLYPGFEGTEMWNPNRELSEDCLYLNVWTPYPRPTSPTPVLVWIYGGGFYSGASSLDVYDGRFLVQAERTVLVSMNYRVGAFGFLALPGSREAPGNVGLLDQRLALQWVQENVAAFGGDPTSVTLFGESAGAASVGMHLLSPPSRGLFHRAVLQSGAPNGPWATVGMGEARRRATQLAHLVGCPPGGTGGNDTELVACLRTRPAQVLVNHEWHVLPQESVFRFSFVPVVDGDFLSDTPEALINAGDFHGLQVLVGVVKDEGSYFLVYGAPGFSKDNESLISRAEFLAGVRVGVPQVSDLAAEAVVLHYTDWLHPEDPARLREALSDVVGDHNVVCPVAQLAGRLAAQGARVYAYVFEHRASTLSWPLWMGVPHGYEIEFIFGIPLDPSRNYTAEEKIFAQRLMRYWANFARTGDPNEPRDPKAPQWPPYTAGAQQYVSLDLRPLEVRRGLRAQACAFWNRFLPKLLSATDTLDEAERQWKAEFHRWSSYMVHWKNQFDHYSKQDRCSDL

| SMILES | MAP [1] | Vagus [2] | ED50 [3] | HR [5] | IC50 [6] | EC50 [7] | solubility [8] | also measured |
| --- | --- | --- | --- | --- | --- | --- | --- | --- |
| COc1ccc2c3c1OC1C[C@@H](O)C=C[C@@]31CC[N+](C)(C)C2 (some centres not stated) | 16 delta % | 80 delta % | 0.1 µmol/kg | -5 delta % | ~500 nM | 630 nM | – | Max rev [4]: 130% |
| C[N+]1(Cc2ccccc2)CCC(CCC(=O)c2ccc3c(c2)OCCO3)CC1 (configuration not stated) | – | – | – | – | 100 nM | > 3000 nM | < 500 µg/mL | – |
| COc1cc2cc(C(=O)CCC3CC[N+](C)(Cc4ccccc4)CC3)sc2cc1OC (configuration not stated) | – | – | – | – | 8 nM | 19 nM | 2000 µg/mL | – |
| COc1cc2c(cc1OC)C(=O)C(CC1CC[N+](C)(Cc3ccccc3)CC1)C2 (configuration not stated) | -22 delta % | 37 delta % | ~0.06 µmol/kg | 11 delta % | 25 nM | 100 nM | – | Max rev [4]: 131% |
| Cc1cc(C(=O)CCC2CC[N+](C)(Cc3ccccc3)CC2)nn1-c1ccccc1 (configuration not stated) | – | – | – | – | 22 nM | 430 nM | 2000 µg/mL | – |
| COc1cc2c(cc1OC)C(=O)C(C(O)C1CC[N+](Cc3ccccc3)(Cc3ccccc3)CC1)C2 (configuration not stated) | – | – | – | – | – | 43500 nM | – | – |
| COc1cc2c(cc1OC)C(=O)C(Cc1cc[n+](Cc3ccccc3)cc1)C2 (configuration not stated) | – | – | – | – | – | 100 nM | – | – |
| C[N+]1(Cc2ccccc2)CCC(CCC(=O)c2ccc3c(c2)OCO3)CC1 (configuration not stated) | – | – | – | – | 240 nM | 1700 nM | 500 µg/mL | – |
| O=C(CCC1CCN(Cc2ccccc2)CC1)c1ccc2c(c1)NCCCC2 [ZANAPEZIL] | -11 delta % | 8 delta % | 3.7 µmol/kg | -5 delta % | – | – | – | Max rev [4]: 68% |
| C[N+]1(Cc2ccccc2)CCC(CCC(=O)c2ccc3c(c2)NCCCC3)CC1 (configuration not stated) | -6 delta % | 10 delta % | 0.15 µmol/kg | 4 delta % | < 500 nM | 331 nM | – | Max rev [4]: 140% |
| C[N+]1(Cc2ccccc2)CCC(CCC(=O)c2ccc3c(c2)CCO3)CC1 (configuration not stated) | – | – | – | – | 17 nM | 90 nM | 1500 µg/mL | – |
| COc1cc2c(cc1OC)C(=O)/C(=C/c1cc[n+](Cc3ccccc3)cc1)C2 | – | – | – | – | – | 12 nM | – | – |
| COc1cc2c(cc1OC)C(=O)C(CC1CCN(Cc3ccccc3)CC1)C2 (configuration not stated) [DONEPEZIL] | -12 delta % | 14 delta % | 0.53 µmol/kg | -12 delta % | – | – | – | Max rev [4]: 106% |
| COc1cc2c(cc1OC)C(=O)[C@@H]([C@H](O)C1CC[N+](C)(Cc3ccccc3)CC1)C2 (some centres not stated) | – | – | – | – | – | 890 nM | – | – |
| COc1cc2c(cc1OC)C(=O)[C@@H]([C@@H](O)C1CC[N+](C)(Cc3ccccc3)CC1)C2 (some centres not stated) | – | – | – | – | – | 2700 nM | – | – |
| CC1=C[C@H]2Cc3[nH]c(=O)ccc3[C@]3(C1)NCCC[C@H]23 [HUPERZINE B] | -17 delta % | 102 delta % | 0.08 µmol/kg | -8 delta % | – | 19 nM | – | IC50 [9]: 30 nM; Max rev [4]: 156% |
| COc1cc2c(cc1OC)C(=O)C(C(O)C1CC[N+](C)(Cc3ccccc3)CC1)C2 (configuration not stated) | -22 delta % | 18 delta % | 0.21 µmol/kg | -12 delta % | – | 1440 nM | – | Max rev [10]: 109% |
| C[N+]1(Cc2ccccc2)CCC(CCC(=O)c2ccc3c(c2)CCCCO3)CC1 (configuration not stated) | – | – | – | – | 139 nM | – | 5000 µg/mL | – |
| C[N@+]1(Cc2ccccc2)CC[C@H](CCC(=O)c2ccc3c(c2)CCO3)CC1 | – | – | – | – | 66 nM | – | > 10000 µg/mL | – |
| COc1ccc2cc(C(=O)CCC3CC[N+](C)(Cc4ccccc4)CC3)ccc2c1 (configuration not stated) | – | – | – | – | 50 nM | 530 nM | < 1000 µg/mL | – |
| COc1cc2cc(C(=O)CCC3CC[N+](C)(Cc4ccccc4)CC3)n(C)c2cc1OC (configuration not stated) | – | – | – | – | 120 nM | 1600 nM | 1200 µg/mL | – |
| COc1cc2c(cc1OC)C(=O)C(C(O)c1cc[n+](Cc3ccccc3)cc1)C2 (configuration not stated) | – | – | – | – | – | 1880 nM | – | – |
| CC1=CC2Cc3[nH]c(=O)ccc3C3(C1)C2CCCN3C (configuration not stated) | – | – | – | – | > 100000 nM | > 10000 nM | – | – |
